Data taken from paper PMC7156724, “Potent BRD4 inhibitor suppresses cancer cell-macrophage interaction” (Nature Communications, 2020).
“And” between values parts separate entries of the source, which are not always exact repeats. Equal entries are not always repeated.

Assays:
[1] = In vivo pharmacokinetics study, rat; set-up: species or system SD rat; details: male, SD, plasma, po, 5 mg/kg, PO, individual animals, LLOQ 1.00 ng/mL, read-out: Plasma Conc.
Experimental: 4–6 weeks old female BALB/c nude mice were used for most experiments, with the exception of 6–8 weeks old female C57BL/6 mice were used for B16F10 experiments, and 6–8 weeks old male BALB/c nude mice and SD rats were used for pharmacokinetic experiments. All animals were purchased from Shanghai SIPPR-Bk Lab Animal Co., Ltd. All animals were housed under a regimen of 12 h light/12 h dark cycles and specific pathogen-free conditions. 5×10^6 NCI-H526, ES-2, MDA-MB231, A2780, A375, B16F10, and TMD-8 cells (0.1 ml) were injected subcutaneously into female nude mice. The melanoma patient-derived xenograft model was derived from a human melanoma sample (BRAF, NARS and NF1 wild type, and p53 mutant) removed from a patient in Xiangya Hospital. Surgically removed tumor fragments were implanted subcutaneously into female NSG mice. When the tumors grew to ~1000 mm^3, they were harvested and cryopreserved or immediately re-implanted for expansion or experiments. Mouse body weight and tumor sizes were measured every 3 days. Once the tumors grew to 150–200 mm^3, mice were treated with the compounds as described in the Figures. 1 × 10^6 A2780 cells (1 ml) were injected into the abdominal cavity of nude mice. Ascitic volume and tumor weight were measured by an electronic balance. All the procedures were evaluated and approved by the Institutional Animal Care and Use Committee of Central South University and Yale University.
Supplementary Figure 7. Pharmacokinetic profile of NHWD-870 using mouse and rat models.
(a,b) Plasma concentrations of NHWD-870 in healthy (a) mouse and (b) rat after intravenous (IV, 1.75 mg/kg for mouse and 1 mg/kg for rat) and oral (PO, 5 mg/kg) administration. Values shown on the right panels are mean ± SEM from 3 different animals. (c,d) Mean concentrations of NHWD-870 in the lungs (c) and tumors (d) of H526 xenograft model at the indicated hours after oral administration of 3 mg/kg NHWD-870 and BMS-98615821 on day 21. These mice were administrated the indicated drug daily for 21 days. Data are represented as mean ± SEM of 3 independent experiments. Source data are provided as a Source Data file. […]
9. In vivo pharmacokinetics study. Mouse and SD rat models were used to evaluate pharmacokinetic property of NHWD-870. NHWD-870 was administrated […]
Concentration of drugs in plasma, lung and tumor tissues were measured for the indicated time. […]

[2] = system: HaCAT cells (immortalized human keratinocytes); test: MTS assay of non-cancerous cells; type: cell-based; set-up: Cell viability (Sup Fig.4a) / Cell viability (Sup Fig.4b) / Cell viability (Sup Fig.4b, 72h): unit not given here; details: for Cell viability (Sup Fig.4b): 48h
Experimental: (§1) Supplementary Figure 4. […] (a-c) MTS
(§2) assays of HaCAT cells (immortalized human keratinocytes) treated with the indicated concentration of
(§3) NHWD-870 for 24h (a), 48h (b) or 72h (c). Data are presented as mean ± SEM of 5 independent experiments.
(§4) p values were calculated from two-tailed, unpaired t tests. Source data are provided as a Source Data file.
(§5) 37℃, 5% CO2. […]

[3] = MTS assay of non-cancerous cells; type: cell-based, human; set-up: Cell viability (Sup Fig.4a) / Cell viability (Sup Fig.4b) / Cell viability (Sup Fig.4b, 72h): unit not given here; details: human
Experimental: as §1, §2, §3, §4, §5

## Cc1nnn(C)c1-c1cnc2c3c4cnn(C)c4ccc3n([C@H](c3ccccc3)C3CCOCC3)c2c1 [NHWD-870]
[1]; 0.25 h
  concentration at 0.25 h: 18.2 ng/mL
[1]; 0.5 h
  concentration at 0.5 h: 56.8 ng/mL
[1]; 2 h
  concentration at 2 h: 110 ng/mL
[1]; 4 h
  concentration at 4 h: 45.5 ng/mL
[2]; 24h, 48h or 72h
  effect on growth of HaCAT cells: minimal effects
[2]; 24h, 8 nM, 0.008 µM
  Cell viability (Sup Fig.4a): 96.6 and 101.8 and 89.4 and 88.3
[2]; 24h, 16 nM, 0.016 µM
  Cell viability (Sup Fig.4a): 98.4 and 107.6 and 95.8
[2]; 24h, 32 nM, 0.032 µM
  Cell viability (Sup Fig.4a): 83 and 93.4 and 105.5 and 99.6 and 95.5
[2]; 24h, 64 nM, 0.064 µM
  Cell viability (Sup Fig.4a): 112.7 and 111.1 and 101.6 and 109.8
[2]; 24h, 250 nM, 0.25 µM
  Cell viability (Sup Fig.4a): 109.5 and 106.5 and 97.6 and 108.3
[2]; 24h, 500 nM, 0.5 µM
  Cell viability (Sup Fig.4a): 119.6 and 110.7 and 109.3 and 105
[2]; 24h, 1000 nM, 1 µM
  Cell viability (Sup Fig.4a): 106.7 and 106.8 and 109.4 and 111.5
[2]; 8 nM, 0.008 µM
  Cell viability (Sup Fig.4b): 89.1 and 94.5 and 96.5
  Cell viability (Sup Fig.4b, 72h): 90.9 and 86.4 and 92.1 and 95.1
[2]; 16 nM, 0.016 µM
  Cell viability (Sup Fig.4b): 85.3 and 85.9 and 93.1 and 85.1
  Cell viability (Sup Fig.4b, 72h): 95.9 and 89.1 and 93.1
[2]; 32 nM, 0.032 µM
  Cell viability (Sup Fig.4b): 88.3 and 88.2
  Cell viability (Sup Fig.4b, 72h): 88.4 and 97.6 and 92.8 and 90.1
[2]; 64 nM, 0.064 µM
  Cell viability (Sup Fig.4b): 94.7 and 90.4 and 88.4
  Cell viability (Sup Fig.4b, 72h): 99.6 and 89.5 and 92.9
[2]; 250 nM, 0.25 µM
  Cell viability (Sup Fig.4b): 97.7 and 92.7 and 91.5
  Cell viability (Sup Fig.4b, 72h): 93.7 and 89.8 and 88
[2]; 500 nM, 0.5 µM
  Cell viability (Sup Fig.4b): 88 and 95 and 91.6 and 82.3
  Cell viability (Sup Fig.4b, 72h): 98.2 and 93.6 and 82.4 and 89.4
[2]; 1000 nM, 1 µM
  Cell viability (Sup Fig.4b): 88.6 and 81.5 and 80.9 and 84.8
  Cell viability (Sup Fig.4b, 72h): 74 and 86.3 and 92.4
[3]; HaCAT cells (immortalized human keratinocytes), 24h, 8 nM, read-out: Cell viability (Sup Fig.4a)
  viability at 24 h, 0.008 µM: 92.2%
[3]; HaCAT cells (immortalized human keratinocytes), 24h, 16 nM, read-out: Cell viability (Sup Fig.4a)
  viability at 24 h, 0.016 µM: 110%
[3]; HaCAT cells (immortalized human keratinocytes), 24h, 64 nM, read-out: Cell viability (Sup Fig.4a)
  viability at 24 h, 0.064 µM: 103%
[3]; HaCAT cells (immortalized human keratinocytes), 24h, 250 nM, read-out: Cell viability (Sup Fig.4a)
  viability at 24 h, 0.25 µM: 104%
[3]; HaCAT cells (immortalized human keratinocytes), 24h, 500 nM, read-out: Cell viability (Sup Fig.4a)
  viability at 24 h, 0.5 µM: 100%
[3]; HaCAT cells (immortalized human keratinocytes), 48h, 32 nM, read-out: Cell viability (Sup Fig.4b)
  viability at 48 h, 0.032 µM: 91%
[3]; HaCAT cells (immortalized human keratinocytes), 48h, 64 nM, read-out: Cell viability (Sup Fig.4b)
  viability at 48 h, 0.064 µM: 83.9%
[3]; HaCAT cells (immortalized human keratinocytes), 48h, 250 nM, read-out: Cell viability (Sup Fig.4b)
  viability at 48 h, 0.25 µM: 88.5%
[3]; HaCAT cells (immortalized human keratinocytes), 48h, 500 nM, read-out: Cell viability (Sup Fig.4b)
  viability at 48 h, 0.5 µM: 86.7%
[3]; HaCAT cells (immortalized human keratinocytes), 48h, 1000 nM, read-out: Cell viability (Sup Fig.4b)
  viability at 48 h, 1 µM: 87.1%
[3]; HaCAT cells (immortalized human keratinocytes), 72h, 8 nM, read-out: Cell viability (Sup Fig.4b, 72h)
  viability at 72 h, 0.008 µM: 99.5%
[3]; HaCAT cells (immortalized human keratinocytes), 72h, 16 nM, read-out: Cell viability (Sup Fig.4b, 72h)
  viability at 72 h, 0.016 µM: 90.2%
[3]; HaCAT cells (immortalized human keratinocytes), 72h, 32 nM, read-out: Cell viability (Sup Fig.4b, 72h)
  viability at 72 h, 0.032 µM: 86.9%
[3]; HaCAT cells (immortalized human keratinocytes), 72h, 64 nM, read-out: Cell viability (Sup Fig.4b, 72h)
  viability at 72 h, 0.064 µM: 89.6%
[3]; HaCAT cells (immortalized human keratinocytes), 72h, 250 nM, read-out: Cell viability (Sup Fig.4b, 72h)
  viability at 72 h, 0.25 µM: 78.9%
[3]; HaCAT cells (immortalized human keratinocytes), 72h, 500 nM, read-out: Cell viability (Sup Fig.4b, 72h)
  viability at 72 h, 0.5 µM: 87.1%
[3]; HaCAT cells (immortalized human keratinocytes), 72h, 1000 nM, read-out: Cell viability (Sup Fig.4b, 72h)
  viability at 72 h, 1 µM: 78.4%
[3]; HaCAT cells (immortalized keratinocytes), 24h, 1000 nM, read-out: Cell viability (Sup Fig.4a)
  viability at 24 h, 1 µM: 108%
[3]; HaCAT cells (immortalized keratinocytes), 48h, 8 nM, read-out: Cell viability (Sup Fig.4b)
  viability at 48 h, 0.008 µM: 86.6%
[3]; HaCAT cells (immortalized keratinocytes), 48h, 16 nM, read-out: Cell viability (Sup Fig.4b)
  viability at 48 h, 0.016 µM: 89.9%
